# Reference: US7560474B2, “Derivatives of pyridilethanol (phenylethyl) amines as inhibitors of cholesterol biosynthesis, process for their preparation and pharmaceutical compositions containing them” (Lek Pharmaceuticals d.d., priority 2002, dated 2009)
# “Also recorded” adds a separate entry of the source. Structures can show the parent of a compound that is named as a salt.
# Columns and labels:
# [1] = test system: cholesterol biosynthesis in immortal human hepatocyte cell line HepG2; assay: Metabolic labeling of immortal human hepatocytes (HepG2) with [3H] acetate, HPLC sterol analysis; format: cell-based; conditions: 100 μM inhibitor, HepG2 cells, [3H] acetate labeling, radiodetector HPLC; for quantity of radiolabelled cholesterol synthesized (inhibition of cholesterol biosynthesis): FIG. 3
# Method: In accordance with the invention goal, the effect of the novel derivatives of pyridylethanol (phenylethyl) amine as ligands of sigma receptors on inhibition of cholesterol biosynthesis was assessed. An ex vivo method of metabolic labeling of immortal human hepatocytes was employed. The radioactively labelled early precursor of cholesterol [^3H] acetate was added to cells with or without addition of sigma ligands. Two independent experiments of metabolic labeling and sterol analysis were performed. […] The inhibitory effect on cholesterol biosynthesis of our novel ligands of sigma receptors BK-31.2 HBr, BK-33.2HBr, BK-35.2HBr and BK-38.2HBr), prepared according to examples 1 to 4, was evaluated. An ex vivo method of metabolic labeling of immortal human hepatocytes was applied. The radiolabel led precursor of cholesterol biosynthesis [^3H] acetate was added to the cells with or without the addition of sigma ligands. Finally, two independent experiments of metabolic labeling and sterol analysis were performed for each compound. The immortal human hepatocyte cell line HepG2 was split to the 75 cm^2 flasks in the ratio 1:2, two flasks for each condition. The cells were cultured in the DMEM culture ([…] 0.0626 […] 0.042 […]-thryptophan 0.016 g/l, L-[…]Na.2H2O 0.10379 […], choline chloride 0.004 g/l, folic acid 0.004 g/l, myo-inositol 0.0072 g/l, niacinamide 0.004 g/l, D-pantothenic acid 0.004 g/l, pyridoxal.HCl 0.004 g/l, riboflavin 0.0004 g/l, thiamine.HCl 0.004 g/l, calcium chloride.2H2O 0.265 g/l, ferric nitrate.9H2O 0.0001 g/l, magnesium sulfate [anhydride] 0.09767 g/l, potassium chloride 0.4 g/l, sodium chloride 6.4 g/l, monobasic sodium phosphate [anhydride] 0.109 g/l, glucose 4.5 g/l and phenol red, Na 0.0159 g/l) with 5% bovine serum and 1% L-glutamine. After 24 hours a medium with 100 μM ligands of sigma receptors (BK-31.2HBr, BK-33.2HBr, BK-35.2HBr and BK-38.2HBr) was added to the cells. The known inhibitors of cholesterol biosynthesis, 100 μM lovastatin or pravastatin, both the inhibitors of HMG-CoA reductase, and 100 μM fluconazole that inhibits enzymes of the P450 family to which lanosterol 14α-[…] (CYP51) also belongs, were used as positive controls. The cells grown in normal media without the addition of inhibitors served as negative control. The medium was exchanged after 24 hours. After 48 hours, 40 μCi [^3H] acetate was added per 1 ml of the medium (400 μCi per flask). The medium was aspirated after 24 hours, and the cells were tryptinized with 2 ml of trypsine. The cells were collected in 4 ml of the medium, centrifuged, and the cell pellet resuspended in distilled water (1 ml per flask). The cells were homogenized by freeze-thawing. Sterols were extracted from the homogenate. Protein concentration was determined in the homogenate with the Bio-rad reagent according to the recommended protocol of the producer. The homogenate was transferred into glass vials with an inert cover. 3 ml of the extraction solution (75% n-heptane:25% isopropanol (vol/vol)) was added. The closed vials were shaken vigorously on a shaker in the dark room for 2 hours. […] Until analysis, the samples were stored in the HPLC-grade solvent in dark and cold. The dried extracts were dissolved in 250 μl n-heptane. 100 μl aliquots were injected into the normal phase column (ChromSpher Si, 150 mm×3 mm, particle size 5 μm) with the mobile phase 99.5% n-heptane:0.5% isopropanol at flow rate 1 ml/min and room temperature. […] For determination of sterol after metabolic labeling, a radiodetector with the flow-through cell was used. […] G. Byskov, Rikhospitalitet, University of Copenhagen). The results were normalized according to the quantity of internal standard ergosterol and the concentration of proteins in the homogenate. The results represent the average value of two measurements with appropriate standard deviation.
SMILES,quantity of radiolabelled cholesterol synthesized (inhibition of cholesterol biosynthesis) [1],further results
"CCCN(CCc1ccccc1)CC(O)c1cccnc1 (stereo not drawn) [BK-31.2HBr, 1-(3-pyridyl)-2-(N-(2-phenylethyl)-N-propylamino)ethanol dihydrobromide]",significantly lowered amounts of cholesterol,–
"CN(CCc1ccc(Cl)c(Cl)c1)CC(O)c1cccnc1 (stereo not drawn) [BK-33.2HBr, 1-(3-pyridyl)-2-(N-(2-(3,4-dichlorophenyl)ethyl)-N-methylamino)ethanol dihydrobromide]",significantly lowered amounts of cholesterol,–
"OC(Cn1cncn1)(Cn1cncn1)c1ccc(F)cc1F [Fluconazole, fluconazole, reference compound]",weaker inhibitor of cholesterol biosynthesis,–
"CC[C@H](C)C(=O)O[C@H]1C[C@@H](C)C=C2C=C[C@H](C)[C@H](CC[C@@H]3C[C@@H](O)CC(=O)O3)[C@H]21 [Lovastatin, lovastatin, reference compound]",completely blocked the biosynthesis,–
"CCCN(CCc1ccccc1)CC(O)c1cccnc1 (stereo not drawn) (as salt: hydrobromid) [BK-31.2HBr, 1-(3-pyridyl)-2-(N-(2-phenylethyl)-N-propylamino)ethanol dihydrobromide]",–,melting point: 113 to 120 °C
"CCCN(CCc1ccc(Cl)c(Cl)c1)CC(O)c1cccnc1 (stereo not drawn) [BK-35.2HBr, 1-(3-pyridyl)-2-(N-(2-(3,4-dichlorophenyl)ethyl)-N-propylamino)ethanol dihydrobromide]",–,"quantity of radiolabelled cholesterol synthesized (inhibition of cholesterol biosynthesis) ([1]; dihydrobromide): most pronounced; also recorded: cholesterol quantity is diminished; also recorded: significantly lowered amounts of cholesterol; also recorded: greatest lowering of cholesterol; quantity of radiolabelled cholesterol synthesized (inhibition of cholesterol biosynthesis) ([1]; listed as BK 35.2HBr, dihydrobromide): highest potential to inhibit cholesterol biosynthesis; amount of intermediate sterols representing lanosterol or T-MAS (accumulation of early postsqualene intermediates) ([1]; FIG. 4, dihydrobromide): ten-fold increase; also recorded: increased"
"CN(CCc1ccc(Cl)c(Cl)c1)CC(O)c1ccncc1 (stereo not drawn) [BK-38.2HBr, 1-(4-pyridyl)-2-(N-(2-(3,4-dichlorophenyl)ethyl)-N-methylamino)ethanol dihydrobromide]",significantly lowered amounts of cholesterol,–
